Results on 13 compounds are retold here after ChEMBL document CHEMBL3407405 (J Med Chem, 2015).

In test [1] the target is T1, Estrogen receptor (Homo sapiens) (UniProt P03372).
T1 sequence (whole entry): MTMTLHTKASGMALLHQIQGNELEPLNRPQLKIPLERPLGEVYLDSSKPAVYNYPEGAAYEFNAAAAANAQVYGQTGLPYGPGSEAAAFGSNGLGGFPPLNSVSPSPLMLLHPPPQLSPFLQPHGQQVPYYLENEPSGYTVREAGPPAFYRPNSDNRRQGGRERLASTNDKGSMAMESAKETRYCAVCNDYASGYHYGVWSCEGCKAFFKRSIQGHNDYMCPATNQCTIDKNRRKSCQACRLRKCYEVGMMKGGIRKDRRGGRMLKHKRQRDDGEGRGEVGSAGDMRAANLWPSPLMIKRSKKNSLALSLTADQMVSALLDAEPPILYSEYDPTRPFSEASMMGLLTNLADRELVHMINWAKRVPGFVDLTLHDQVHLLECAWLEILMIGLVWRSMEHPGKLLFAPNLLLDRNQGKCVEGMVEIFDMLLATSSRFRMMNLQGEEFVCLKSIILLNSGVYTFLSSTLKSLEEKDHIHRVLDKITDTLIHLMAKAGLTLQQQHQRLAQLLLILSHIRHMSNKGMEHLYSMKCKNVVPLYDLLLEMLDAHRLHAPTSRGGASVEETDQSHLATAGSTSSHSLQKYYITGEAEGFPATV
Put plainly: Displacement of [3H]estradiol from human full-length ERalpha after 18 to 24 hrs by relative binding affinity/competitive radiometric binding assay relative to estradiol. The following applies: concentration not given here.

Test [2] deals with T2, Estrogen receptor beta (Homo sapiens, UniProt Q92731). Put plainly: Displacement of [3H]estradiol from human full-length ERbeta after 18 to 24 hrs by relative binding affinity/competitive radiometric binding assay relative to estradiol. The conditions noted are these: concentration not given here.
Test [3] has as its target T3, Estrogen receptor (Homo sapiens, UniProt P03372).
T3 sequence (P03372 whole entry): T1 sequence (whole entry)
Description: Agonist activity at human ERalpha in human MCF7 cells assessed as progesterone receptor endogenous genes activation after 24 hrs by qPCR

Test [4] addresses T2, Estrogen receptor beta.
Description: Agonist activity at human ERbeta expressed in human HEC1 cells assessed as transcriptional activation after 24 hrs by ERE-luciferase reporter gene transfection assay
Test [5] addresses T3, Estrogen receptor. This is another data set of the same source.
Description: Agonist activity at human ERalpha expressed in human HEC1 cells assessed as transcriptional activation after 24 hrs by ERE-luciferase reporter gene transfection assay
Test [6] concerns the target T2, Estrogen receptor beta. The source holds these as a separate data set.
Description: Agonist activity at human ERbeta in human MCF7 cells assessed as otubain 2 endogenous genes activation after 24 hrs by qPCR

T2 sequence (Q92731 whole entry): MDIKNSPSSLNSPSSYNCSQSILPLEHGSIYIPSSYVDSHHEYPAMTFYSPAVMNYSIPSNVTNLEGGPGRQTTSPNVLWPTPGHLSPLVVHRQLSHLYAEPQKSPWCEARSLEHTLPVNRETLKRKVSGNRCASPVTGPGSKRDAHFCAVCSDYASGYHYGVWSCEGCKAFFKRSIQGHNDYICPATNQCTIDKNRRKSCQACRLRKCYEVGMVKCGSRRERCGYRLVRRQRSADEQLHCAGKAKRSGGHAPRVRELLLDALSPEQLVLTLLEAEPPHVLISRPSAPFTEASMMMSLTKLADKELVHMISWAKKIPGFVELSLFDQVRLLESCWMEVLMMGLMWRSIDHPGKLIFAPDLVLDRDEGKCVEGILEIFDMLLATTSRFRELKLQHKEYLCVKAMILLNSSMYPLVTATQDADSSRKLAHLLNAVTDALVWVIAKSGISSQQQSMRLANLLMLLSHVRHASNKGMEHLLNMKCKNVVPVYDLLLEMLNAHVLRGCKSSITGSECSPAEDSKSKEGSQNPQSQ

Turning to `COc1ccc(-c2ccc(O)c(/C(C)=N/O)c2)cc1F`, the inhibition (in test [1]; at Estrogen receptor beta [2]) was less than 0.005% throughout.

On to `C/C(=N\O)c1cc(-c2ccc(Cl)cc2)ccc1O`, for which the inhibition in test [1] is less than 0.005%; on Estrogen receptor beta [2], 0.099%.

As to `O/N=C(/c1cc(-c2ccc(O)cc2)ccc1O)C(F)(F)F`, the figures for the inhibition (in test [1]; on Estrogen receptor beta [2]) were 0.036% and 0.76%, respectively.

`C/C(=N\O)c1cc(-c2ccc(O)c(Cl)c2)ccc1O`: the inhibition came to 0.033% in test [1] and 1.1% at Estrogen receptor beta [2].

On to `C/C(=N\O)c1cc(-c2ccc(O)c(C)c2)ccc1O`, for which the inhibition stood at 0.1% in test [1] and 1.6% at Estrogen receptor beta [2].

Take `CC/C(=N\O)c1cc(-c2ccc(O)c(F)c2)ccc1O`: the inhibition in test [1] was 1.9%; on Estrogen receptor beta [2], 49%.

In the case of `COc1ccc(-c2ccc(O)c(/C(C)=N/O)c2)cc1C`, the inhibition (in test [1]; on Estrogen receptor beta [2]) was less than 0.005% in each case.

With `C/C(=N\O)c1cc(-c2ccc(O)cc2)ccc1O`, the concentration for a half-maximal effect (EC50) on Estrogen receptor [3] was 83.8 nM; on Estrogen receptor beta [4], 3.97 nM; on Estrogen receptor [5] it was 29.3 nM; on Estrogen receptor beta [6], 12.7 nM. Also, the inhibition turned out to be 0.54% in test [1] and 46% at Estrogen receptor beta [2].

For the compound `CC/C(=N\O)c1cc(-c2ccc(O)cc2)ccc1O`, the inhibition in test [1] came out at 3%; on Estrogen receptor beta [2] it was 46%.

For the compound `COc1ccc(-c2ccc(O)c(/C(C)=N/O)c2)cc1Cl`, the inhibition (in test [1]; on Estrogen receptor beta [2]) was less than 0.005% in each case.

As for `C/C(=N\O)c1cc(-c2ccc(O)c(F)c2)ccc1O`, the concentration for a half-maximal effect (EC50) on Estrogen receptor [3] amounted to 2090 nM; on Estrogen receptor beta [4], 14.7 nM; at Estrogen receptor [5] it was 194 nM; at Estrogen receptor beta [6], 35 nM. Further, the values for the inhibition (in test [1]; at Estrogen receptor beta [2]) were 0.16% and 12%, respectively.

Regarding `C/C(=N\O)c1cc(-c2ccc(F)cc2)ccc1O`, the inhibition was less than 0.005% in test [1] and 0.015% on Estrogen receptor beta [2].

In the case of `COc1ccc(-c2ccc(O)c(/C(C)=N/O)c2)cc1`, the inhibition in test [1] is less than 0.005%; on Estrogen receptor beta [2], 0.011%.
